The values that follow are results of earlier work, collected in patent US20140316534A1, “STENT” (Photocure ASA, priority 2011, published 2014).

SMILES strings stand for the structures.

This series deals with dysplastic tissue in Barrett's esophagus.
Setting [1] is: systemic application, higher doses of 20 mg/kg and 30 mg/kg.

On to `NCC(=O)CCC(=O)O` [5-ALA, 5-amino-4-oxo-pentanoic acid], for which the side effects entry (systemic application of 20 mg/kg or more) was “increasing side effects at high dosages”. Moreover, under setting [1], the “sensitivity for detection of dysplastic tissue” value is listed as “increase the sensitivity” and the “specificity (rate of false positive fluorescence)” value is reported as “poor”.
